According to US20100298141A1, “SUBSTITUTED PYRIDINE N-OXIDE HERBICIDES” (E. I. DU PONT DE NEMOURS AND COMPANY, priority 2007, published 2010):

How the values were obtained:
soybean = assay: Test C pre-/postemergence test; format: in vivo, Glycine max
Outline: (§1)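 Seeds were planted and treated preemergence with test chemical in a non-phytotoxic solvent mixture containing surfactant. Postemergence applications of the same formulation went onto plants 2 to 18 cm tall (1- to 4-leaf stage). A dash marks no test result.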

green foxtail = assay: Test C pre-/postemergence test; format: in vivo, Setaria viridis
Outline: as §1

barnyardgrass = assay: Test A pre-/postemergence greenhouse test; format: in vivo, Echinochloa crus-galli; conditions: for Plant response rating, Barnyardgrass: 0 to 100 scale where 0 is no effect and 100 is complete control; for Barnyardgrass plant response rating: 0 to 100 scale
Outline: (§2)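 Pots of loam–sand soil sown with the test species are sprayed preemergence on the soil surface; emerged seedlings (1–2 leaves, 2–10 cm) are sprayed postemergence at the same time. The vehicle is a non-phytotoxic solvent mixture with surfactant. Injury is scored visually after ~10 d in greenhouse.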

yellow nutsedge = assay: Test C pre-/postemergence test; format: in vivo, Cyperus esculentus
Outline: as §1

pigweed = assay: Test C pre-/postemergence test; format: in vivo, Amaranthus retroflexus
Outline: as §1

crabgrass = assay: Test C pre-/postemergence test; format: in vivo, Digitaria sanguinalis
Outline: as §1

Italian ryegrass = assay: Test C pre-/postemergence test; format: in vivo, Lolium multiflorum
Outline: as §1

kochia = assay: Test C pre-/postemergence test; format: in vivo, Kochia scoparia
Outline: as §1

cocklebur = assay: Test C pre-/postemergence test; format: in vivo, Xanthium strumarium; conditions: for Plant response rating, Cocklebur: scale 0 to 100, 0 no effect, 100 complete control
Outline: as §1

[1] = system: common (oilseed) sunflower; assay: Test C pre-/postemergence test; format: in vivo, Helianthus annuus
Outline: as §1

wheat = assay: Test C pre-/postemergence test; format: in vivo, Triticum aestivum
Outline: as §1

blackgrass = assay: Test C pre-/postemergence test; format: in vivo, Alopecurus myosuroides
Outline: as §1

umbrella sedge = assay: Test C flooded paddy test; format: in vivo, Cyperus difformis; conditions: Flood, 62 g ai/ha; scale 0 to 100 (0 no effect, 100 complete control)
Outline: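 Under a constant 3 cm flood, test compounds went directly into the paddy water. Following 13 to 15 days of greenhouse growth, treated species and controls were compared by eye.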

morningglory [2] = assay: Test A pre-/postemergence greenhouse test; format: in vivo, Ipomoea spp.; conditions: for Plant response rating, Morningglory: 0 to 100 scale where 0 is no effect and 100 is complete control; for Morningglory plant response rating: 0 to 100 scale
Outline: as §2

corn = assay: Test C pre-/postemergence test; format: in vivo, Zea mays
Outline: as §1

woolly cupgrass = assay: Test C pre-/postemergence test; format: in vivo, Eriochloa villosa
Outline: as §1

morningglory [3] = assay: Test C pre-/postemergence test; format: in vivo, Ipomoea coccinea
Outline: as §1

[4] = 62 g ai/ha, Preemergence, scale 0 to 100
[5] = 125 g ai/ha, preemergence, scale 0 (no effect) to 100 (complete control)
[6] = Postemergence, 125 g ai/ha, scale 0 to 100, 0 no effect, 100 complete control
[7] = Postemergence, 250 g ai/ha, scale 0 to 100, 0 no effect, 100 complete control
[8] = Preemergence, 31 g ai/ha, scale 0 to 100 (0 no effect, 100 complete control)
[9] = preemergence, 250 g ai/ha, scale 0 (no effect) to 100 (complete control)
[10] = Postemergence, 62 g ai/ha, scale 0 to 100, 0 no effect, 100 complete control
[11] = Postemergence, 500 g ai/ha, 0 is no effect, 100 is complete control
[12] = Preemergence, 125 g ai/ha, 0 no effect, 100 complete control

Cn1nc(C(F)(F)F)c(C[S+]([O-])c2ccc(F)c[n+]2[O-])c1OCC(F)(F)F (centres unmarked) [Compound 67]
Soybean plant response rating (soybean; [4]): 80 | Soybean plant response rating (soybean; [5]): 100 | Plant response rating (0 to 100), Soybean (soybean; Postemergence, 31 g ai/ha): 0 | Plant response rating (0 to 100), Soybean (soybean; Postemergence, 62 g ai/ha): 40 | Plant response rating, Soybean (soybean; [6]): 50 | Plant response rating, Soybean (soybean; [7]): 80 | Plant response rating, Soybean (soybean; [8]): 0 | Soybean plant response rating (soybean; [9]): 100 | Foxtail, Green plant response rating (green foxtail; [4]): 100 | Foxtail, Green plant response rating (green foxtail; [5]): 100 | Plant response rating (0 to 100), Foxtail, Green (green foxtail; Postemergence, 31 g ai/ha): 0 | Plant response rating, Foxtail, Green (green foxtail; [10]): 45 | Plant response rating, Foxtail, Green (green foxtail; [6]): 60 | Plant response rating, Foxtail, Green (green foxtail; [7]): 90 | Plant response rating, Foxtail, Green (green foxtail; [8]): 100 | Foxtail, Green plant response rating (green foxtail; [9]): 100 | Plant response rating, Barnyardgrass (barnyardgrass; Postemergence, 125 g ai/ha): 90 | Barnyardgrass plant response rating (barnyardgrass; [11]): 90 | Barnyardgrass plant response rating (barnyardgrass; [12]): 90 | Plant response rating, Barnyardgrass (barnyardgrass; Preemergence, 500 g ai/ha): 100 | Nutsedge, Yellow plant response rating (yellow nutsedge; [4]): 40 | Nutsedge, Yellow plant response rating (yellow nutsedge; [5]): 40 | Plant response rating (0 to 100), Nutsedge, Yellow (yellow nutsedge; Postemergence, 31 g ai/ha): 0 | Plant response rating, Nutsedge, Yellow (yellow nutsedge; [10]): 0 | Plant response rating, Nutsedge, Yellow (yellow nutsedge; [6]): 0 | Plant response rating, Nutsedge, Yellow (yellow nutsedge; [7]): 0 | Plant response rating, Nutsedge, Yellow (yellow nutsedge; [8]): 0 | Nutsedge, Yellow plant response rating (yellow nutsedge; [9]): 60 | Pigweed plant response rating (pigweed; [4]): 55 | Pigweed plant response rating (pigweed; [5]): 100 | Plant response rating (0 to 100), Pigweed (pigweed; Postemergence, 31 g ai/ha): 0 | Plant response rating (0 to 100), Pigweed (pigweed; Postemergence, 62 g ai/ha): 0 | Plant response rating, Pigweed (pigweed; [6]): 0 | Plant response rating, Pigweed (pigweed; [7]): 60 | Plant response rating, Pigweed (pigweed; [8]): 50 | Pigweed plant response rating (pigweed; [9]): 100 | Crabgrass, Large plant response rating (crabgrass; [4]): 100 | Crabgrass, Large plant response rating (crabgrass; [5]): 100 | Plant response rating (0 to 100), Crabgrass, Large (crabgrass; Postemergence, 31 g ai/ha): 0 | Plant response rating, Crabgrass, Large (crabgrass; [10]): 0 | Plant response rating, Crabgrass, Large (crabgrass; [6]): 10 | Plant response rating, Crabgrass, Large (crabgrass; [7]): 60 | Plant response rating, Crabgrass, Large (crabgrass; [8]): 60 | Crabgrass, Large plant response rating (crabgrass; [9]): 100 | Ryegrass, Italian plant response rating (Italian ryegrass; [4]): 100 | Ryegrass, Italian plant response rating (Italian ryegrass; [5]): 100 | Plant response rating (0 to 100), Ryegrass, Italian (Italian ryegrass; Postemergence, 31 g ai/ha): 0 | Plant response rating (0 to 100), Ryegrass, Italian (Italian ryegrass; Postemergence, 62 g ai/ha): 40 | Plant response rating, Ryegrass, Italian (Italian ryegrass; [6]): 90 | Plant response rating, Ryegrass, Italian (Italian ryegrass; [7]): 90 | Plant response rating, Ryegrass, Italian (Italian ryegrass; [8]): 100 | Ryegrass, Italian plant response rating (Italian ryegrass; [9]): 100 | Kochia plant response rating (kochia; [4]): 100 | Kochia plant response rating (kochia; [5]): 100 | Plant response rating (0 to 100), Kochia (kochia; Postemergence, 31 g ai/ha): 0 | Plant response rating, Kochia (kochia; [10]): 0 | Plant response rating, Kochia (kochia; [6]): 60 | Plant response rating, Kochia (kochia; [7]): 60 | Plant response rating, Kochia (kochia; [8]): 80 | Kochia plant response rating (kochia; [9]): 100 | Cocklebur plant response rating (cocklebur; [5]): 0 | Plant response rating (0 to 100), Cocklebur (cocklebur; Postemergence, 31 g ai/ha): 0 | Plant response rating, Cocklebur (cocklebur; Postemergence, 62 g ai/ha): 0 | Plant response rating, Cocklebur (cocklebur; Postemergence, 125 g ai/ha): 0 | Plant response rating, Cocklebur (cocklebur; Postemergence, 250 g ai/ha): 0 | Sunflower plant response rating [1, 4]: 85 | Sunflower plant response rating [1, 5]: 100 | Plant response rating, Sunflower [1, 8]: 45 | Sunflower plant response rating [1, 9]: 100 | Wheat plant response rating (wheat; [4]): 98 | Wheat plant response rating (wheat; [5]): 100 | Plant response rating (0 to 100), Wheat (wheat; Postemergence, 31 g ai/ha): 25 | Plant response rating (0 to 100), Wheat (wheat; Postemergence, 62 g ai/ha): 30 | Plant response rating, Wheat (wheat; [6]): 70 | Plant response rating, Wheat (wheat; [7]): 85 | Plant response rating, Wheat (wheat; [8]): 40 | Wheat plant response rating (wheat; [9]): 100 | Blackgrass plant response rating (blackgrass; [4]): 100 | Blackgrass plant response rating (blackgrass; [5]): 100 | Plant response rating (0 to 100), Blackgrass (blackgrass; Postemergence, 31 g ai/ha): 30 | Plant response rating, Blackgrass (blackgrass; [10]): 80 | Plant response rating, Blackgrass (blackgrass; [6]): 90 | Plant response rating, Blackgrass (blackgrass; [7]): 90 | Plant response rating, Blackgrass (blackgrass; [8]): 90 | Blackgrass plant response rating (blackgrass; [9]): 100 | Plant response rating, Sedge, Umbrella (umbrella sedge): 100 | Plant response rating, Morningglory (morningglory [2]; Postemergence, 125 g ai/ha): 70 | Morningglory plant response rating (morningglory [2]; [11]): 100 | Morningglory plant response rating (morningglory [2]; [12]): 70 | Plant response rating, Morningglory (morningglory [2]; Preemergence, 500 g ai/ha): 100 | Corn plant response rating (corn; [4]): 95 | Corn plant response rating (corn; [5]): 95 | Plant response rating (0 to 100), Corn (corn; Postemergence, 31 g ai/ha): 0 | Plant response rating, Corn (corn; [10]): 0 | Plant response rating, Corn (corn; [7]): 0 | Plant response rating, Corn (corn; [8]): 45 | Corn plant response rating (corn; [9]): 100 | Cupgrass, Woolly plant response rating (woolly cupgrass; [4]): 80 | Cupgrass, Woolly plant response rating (woolly cupgrass; [5]): 98 | Plant response rating (0 to 100), Cupgrass, Woolly (woolly cupgrass; Postemergence, 31 g ai/ha): 0 | Plant response rating, Cupgrass, Woolly (woolly cupgrass; [10]): 0 | Plant response rating, Cupgrass, Woolly (woolly cupgrass; [6]): 30 | Plant response rating, Cupgrass, Woolly (woolly cupgrass; [7]): 50 | Plant response rating, Cupgrass, Woolly (woolly cupgrass; [8]): 70 | Cupgrass, Woolly plant response rating (woolly cupgrass; [9]): 100 | Morningglory plant response rating (morningglory [3]; [4]): 95 | Morningglory plant response rating (morningglory [3]; [5]): 100 | Plant response rating (0 to 100), Morningglory (morningglory [3]; Postemergence, 31 g ai/ha): 0 | Plant response rating, Morningglory (morningglory [3]; [10]): 0 | Plant response rating, Morningglory (morningglory [3]; [6]): 0 | Plant response rating, Morningglory (morningglory [3]; [7]): 0 | Plant response rating, Morningglory (morningglory [3]; [8]): 60 | Morningglory plant response rating (morningglory [3]; [9]): 100
